≈ marks a conversion by molar mass, not a printed value. Entries after “also recorded” stand apart in the source; their conditions may differ.
Key:
[1] = cited from earlier work
PC3 (PSMA−) cells = assay: Cell uptake by confocal laser scanning microscopy, PC3; assay type: cell-based; conditions: 1.5 μM Dox, 2 hours
Protocol: (§1) Prostrate cancer cell lines LNCaP(PSMA+) and PC3 (PSMA−) (5*10^3 cells/mL) were grown in chamber slides in RPMI 1640 media with 10% fetal bovine serum for 24 hours to attain 70% confluence. Before incubation with complex, cells were pre-incubated with OPTIMEM media for 30 minutes, followed by incubation with physical complex of 1.0:1.1 molar ratio of Dox:aptamer with a doxorubicin concentration of 1.5 μM for 2 hours, the cells were washed with PBS twice, fixed with 3.5% HCHO for 10 minutes, washed, mounted with Vector mounting media and cover slipped. Fluorescence images were obtained (Carl Zeiss LSM 510, Ar laser 488, long pass filter 560,63× water lens.)

LNCaP cells [2] = assay: Flow cytometry of cellular uptake, LNCaP; assay type: cell-based; conditions: LNCaP compared to PC3; 1.5 μM
Protocol: (§2) Cellular uptake of the complex was confirmed using flow cytometry (EPICS XL Flow cytometry systems, Beckman Coulter, Inc). Briefly, 5×10^4 cells were seeded onto 12 well plates (n=4) for 24 hours followed by incubation for 2 hours with the complex solution (1.0:1.1 mole ratio of Dox:aptamer) such that final Dox concentration was 1.5 μM. Cells were washed with PBS twice, trypsinized, centrifuged at 1000 rpm for 3 minutes and resuspended in PBS for FACS analysis. Data were processed with EXPO 32 software.

LNCaP(PSMA+) cells = assay: Cell uptake by confocal laser scanning microscopy, LNCaP; assay type: cell-based; conditions: 1.5 μM Dox, 2 hours
Protocol: as §1

PC3 cells [3] = assay: Flow cytometry of cellular uptake, PC3; assay type: cell-based; conditions: PC3 compared to LNCaP; 1.5 μM
Protocol: as §2

LNCaP cells [4] = conditions: MTT, QD 100 nM, Dox 5 μM
Protocol: (§3) The prostate LNCaP and PC3 cell lines were grown in 24-well plates in RPMI-1640 and Ham's F-12K medium, respectively, both supplemented with 100 units/ml aqueous penicillin G, 100 μg/ml streptomycin, and 10% FBS (fetal bovine serum) at concentrations to allow 70% confluence in 24 hours (i.e., 40,000 cells/cm^2). […] Cells were incubated with the conjugates for 3 hours at 37° C., washed two times with PBS (1 ml per well), and incubated in fresh growth media for a total of 72 hours. Cell viability was assessed colorimetrically with the MTT reagent (ATCC) following the standard protocol provided by the manufacturer. The absorbance was read with a microplate reader at 570 nm.

PC3 cells [5] = conditions: MTT, QD 100 nM, Dox 5 μM
Protocol: as §3

A10 PSMA aptamer = assay: Fluorescence quenching titration of Dox with the A10 PSMA aptamer (Hill plot); assay type: binding; conditions: FIG. 2 inset
Protocol: A complex comprising the A10 PSMA aptamer (RNA-Tec, Belgium) and doxorubicin (Dox) was generated through the stepwise addition of increasing molar ratio of aptamer to a fixed concentration of doxorubicin (3 μM) in the presence of 0.1 M sodium acetate, 0.05 M sodium chloride, and 0.01 M magnesium chloride. The fluorescence of Dox was measured at 35 minutes by exciting the solution at 480 nm and recording the emission in the interval of 500 nm-720 nm (1.5 mm slit) on a Shimadzu RF-PC100 spectrofluorophotometer.

LNCaP cells [6] = conditions: cited from earlier work
PC3 cells [7] = conditions: cited from earlier work

CC(=O)O[C@@]12CO[C@@H]1C[C@H](O)[C@@]1(C)C(=O)[C@H](O)C3=C(C)[C@@H](OC(=O)[C@H](O)[C@@H](NC(=O)OC(C)(C)C)c4ccccc4)C[C@@](O)([C@@H](OC(=O)c4ccccc4)[C@H]21)C3(C)C [Dtxl, docetaxel]
water solubility [1]: 0.025 µg/mL (≈ 0.0309 µM)

COc1cccc2c1C(=O)c1c(O)c3c(c(O)c1C2=O)C[C@@](O)(C(=O)CO)C[C@@H]3O[C@H]1C[C@H](N)[C@H](O)[C@H](C)O1 [free Dox, doxorubicin]
uptake / staining by confocal microscopy (PC3 (PSMA−) cells): readily diffuses through the plasma membrane | staining by flow cytometry (LNCaP cells [2]): near-identical staining | uptake / staining by confocal microscopy (LNCaP(PSMA+) cells): readily diffuses through the plasma membrane; also recorded: almost exclusively stains nuclei | staining by flow cytometry (PC3 cells [3]): near-identical staining | cytotoxicity (LNCaP cells [4]): equipotent | cytotoxicity (PC3 cells [5]): equipotent | Kd expressed as equiv of the aptamer (A10 PSMA aptamer): 0.52 equiv

B1: free aptamer: A10 RNA aptamer that binds to the PSMA protein on the surface of prostate cancer cells (Lupold et al., 2002) (nucleic acid)
chain: GGGAGGACGAUGCGGAUCAGCCAUGUUUACGUCACUCCUUGUCAAUCCUCAUCGGCAGACGACUCGCCCGA
modifications: chemistry not given here
cytotoxicity, previously reported (LNCaP cells [6]): no cytotoxicity | cytotoxicity, previously reported (PC3 cells [7]): no cytotoxicity

— patent US20110052697A1, “Aptamer-Directed Drug Delivery” (GWANGJU INSTITUTE OF SCIENCE & TECHNOLOGY, priority 2006, published 2011)
